ChEMBL document CHEMBL1139343, “Pharmacophore guided discovery of small-molecule human apurinic/apyrimidinic endonuclease 1 inhibitors” (J Med Chem, 2009)

How the values were obtained:
[1] = target: DNA repair nuclease/redox regulator APEX1 (Homo sapiens, UniProt P27695); test: Inhibition of purified human recombinant APE1 expressed in Escherichia coli M15 cells
[2] = Inhibition of exonuclase 3
[3] = Selectivity index, IC50 for human recombinant APE1 over exonuclase 3
[4] = target: Human immunodeficiency virus type 1 integrase (Human immunodeficiency virus 1, UniProt Q7ZJM1); test: Inhibition of HIV1 integrase
[5] = Inhibition of endonuclease 4

DNA repair nuclease/redox regulator APEX1, sequence (P27695 whole entry): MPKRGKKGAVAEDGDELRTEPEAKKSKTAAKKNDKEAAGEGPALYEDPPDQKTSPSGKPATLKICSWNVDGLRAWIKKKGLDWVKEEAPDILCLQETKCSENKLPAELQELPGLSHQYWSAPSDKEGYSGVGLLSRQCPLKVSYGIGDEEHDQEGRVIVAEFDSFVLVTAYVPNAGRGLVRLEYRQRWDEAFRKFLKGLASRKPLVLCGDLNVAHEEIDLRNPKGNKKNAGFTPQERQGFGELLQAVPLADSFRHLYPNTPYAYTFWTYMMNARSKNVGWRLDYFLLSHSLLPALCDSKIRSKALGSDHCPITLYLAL
Human immunodeficiency virus type 1 integrase, sequence (Q7ZJM1 whole entry): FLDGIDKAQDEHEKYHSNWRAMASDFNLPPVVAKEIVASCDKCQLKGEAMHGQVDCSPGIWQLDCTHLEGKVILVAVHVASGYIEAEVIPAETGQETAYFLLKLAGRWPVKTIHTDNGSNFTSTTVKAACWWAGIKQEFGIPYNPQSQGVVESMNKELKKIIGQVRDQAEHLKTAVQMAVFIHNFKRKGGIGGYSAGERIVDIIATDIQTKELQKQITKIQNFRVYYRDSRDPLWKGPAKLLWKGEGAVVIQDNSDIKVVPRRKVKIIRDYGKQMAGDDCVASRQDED

SMILES | IC50 [1] | IC50 [2] | Ratio IC50 [3] | IC50 [4] | IC50 [5]
Cc1oc(C)c(C(=O)O)c1COc1ccccc1C(=O)O | 6 µM | 98 µM | 16 | > 100 µM | > 100 µM
O=C(O)Cn1c(CCCCc2nc3ccccc3n2CC(=O)O)nc2ccccc21 | 4 µM | 80 µM | 20 | > 100 µM | > 100 µM
Cc1oc(CSCCSCc2cc(C(=O)O)c(C)o2)cc1C(=O)O | 5 µM |  |  |  | 
CCS(=O)(=O)N1CCN(S(=O)(=O)c2ccc(C(=O)O)cc2)CC1 | > 100 µM |  |  |  | 
O=C(O)CCS(=O)(=O)CCC(=O)O | 40 µM |  |  |  | 
CCc1nnc(NS(=O)(=O)c2ccc(NC(=O)CCC(=O)O)cc2)s1 | 80 µM |  |  |  | 
O=C(Nc1ccccc1O)c1cccc(S(=O)(=O)N2CCCC2)c1 | > 100 µM |  |  |  | 
Cc1oc(CSCC2CCCO2)cc1C(=O)O (centres undefined) | 16 µM |  |  |  | 
Cc1ccc(S(=O)(=O)Nc2ccc(NC(=O)CN3CCCCC3)c(Cl)c2)cc1 | > 100 µM |  |  |  | 
O=C(O)CCC1(CCC(=O)O)c2ccccc2-c2ccccc21 | 50 µM |  |  |  | 

More lines, now with the values ahead:

IC50 [1] | IC50 [2] | Ratio IC50 [3] | IC50 [4] | IC50 [5] | SMILES
4 µM | 90 µM | 23 | > 100 µM | > 100 µM | O=C(O)Cc1cc(S(=O)(=O)c2ccc(Sc3ccc(C(=O)O)cc3)cc2)ccc1C(=O)O
4 µM | > 100 µM | > 25 | > 100 µM | > 100 µM | O=C(O)CCc1ccc(-c2ccc(Cl)cc2)n1CC(=O)O
6 µM | 70 µM | 12 | > 100 µM | > 100 µM | O=C(O)CN1C(=O)/C(=C\c2ccc(-c3cccc(C(=O)O)c3)o2)SC1=S
6 µM | 60 µM | 10 | > 100 µM | > 100 µM | O=C(O)CCN1C(=O)/C(=C2/C(=O)N(CC(=O)O)c3ccccc32)SC1=S
19 µM |  |  |  |  | O=C(O)CSc1cc(-c2ccccc2)nc(SCC(=O)O)n1
